For data set [1], the target named is Integrin alpha-IIb/beta-3 (Homo sapiens, UniProt P05106+P08514). The data set can be described thus: In vitro activity to block the binding of fibrinogen to purified human fibrinogen receptor. Type of data set: protein-complex assay.
For data set [2], the species on record is Homo sapiens. The data set can be described thus: In vitro ability to inhibit aggregation of ADP stimulated human platelets using PRP assay. Type of data set: functional.
A short description of data set [3]: Plasma half life was reported after a intravenous dose of 1 mg/kg in Dawley rat. The conditions noted are these: Sprague-Dawley. Also on record: dose 1 mg/kg, route intravenous. Type of data set: ADME, organism-based.
Data set [4] in a line: Oral bioavailability in rat (Sprague-Dawley) (dose 1 mg/kg p.o.). The data set is classed as ADME, organism-based. As to conditions: in vivo.

pIC50: −log10 of the molar value.

Chain of Integrin alpha-IIb/beta-3 (P05106 27-788 limits assumed): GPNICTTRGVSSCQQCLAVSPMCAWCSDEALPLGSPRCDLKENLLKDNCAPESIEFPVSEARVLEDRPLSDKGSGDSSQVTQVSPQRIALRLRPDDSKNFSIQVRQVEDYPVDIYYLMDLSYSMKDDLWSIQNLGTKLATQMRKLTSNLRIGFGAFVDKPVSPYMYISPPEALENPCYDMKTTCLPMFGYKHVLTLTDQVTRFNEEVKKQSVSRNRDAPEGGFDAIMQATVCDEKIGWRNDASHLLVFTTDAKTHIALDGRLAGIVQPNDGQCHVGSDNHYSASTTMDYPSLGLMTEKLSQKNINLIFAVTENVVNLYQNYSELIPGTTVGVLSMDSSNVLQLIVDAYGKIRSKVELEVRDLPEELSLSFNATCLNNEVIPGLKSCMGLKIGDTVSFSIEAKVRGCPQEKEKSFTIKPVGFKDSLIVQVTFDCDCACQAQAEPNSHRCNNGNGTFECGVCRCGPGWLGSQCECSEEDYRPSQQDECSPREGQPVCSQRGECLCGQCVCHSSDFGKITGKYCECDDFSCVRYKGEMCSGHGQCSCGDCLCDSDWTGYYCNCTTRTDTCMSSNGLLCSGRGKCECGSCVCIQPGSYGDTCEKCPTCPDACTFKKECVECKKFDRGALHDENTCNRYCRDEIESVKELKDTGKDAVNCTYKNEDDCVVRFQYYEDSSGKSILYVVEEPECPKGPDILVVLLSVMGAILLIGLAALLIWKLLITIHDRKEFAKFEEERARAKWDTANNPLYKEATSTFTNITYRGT
Chain of Integrin alpha-IIb/beta-3 (P08514 32-887 limits assumed): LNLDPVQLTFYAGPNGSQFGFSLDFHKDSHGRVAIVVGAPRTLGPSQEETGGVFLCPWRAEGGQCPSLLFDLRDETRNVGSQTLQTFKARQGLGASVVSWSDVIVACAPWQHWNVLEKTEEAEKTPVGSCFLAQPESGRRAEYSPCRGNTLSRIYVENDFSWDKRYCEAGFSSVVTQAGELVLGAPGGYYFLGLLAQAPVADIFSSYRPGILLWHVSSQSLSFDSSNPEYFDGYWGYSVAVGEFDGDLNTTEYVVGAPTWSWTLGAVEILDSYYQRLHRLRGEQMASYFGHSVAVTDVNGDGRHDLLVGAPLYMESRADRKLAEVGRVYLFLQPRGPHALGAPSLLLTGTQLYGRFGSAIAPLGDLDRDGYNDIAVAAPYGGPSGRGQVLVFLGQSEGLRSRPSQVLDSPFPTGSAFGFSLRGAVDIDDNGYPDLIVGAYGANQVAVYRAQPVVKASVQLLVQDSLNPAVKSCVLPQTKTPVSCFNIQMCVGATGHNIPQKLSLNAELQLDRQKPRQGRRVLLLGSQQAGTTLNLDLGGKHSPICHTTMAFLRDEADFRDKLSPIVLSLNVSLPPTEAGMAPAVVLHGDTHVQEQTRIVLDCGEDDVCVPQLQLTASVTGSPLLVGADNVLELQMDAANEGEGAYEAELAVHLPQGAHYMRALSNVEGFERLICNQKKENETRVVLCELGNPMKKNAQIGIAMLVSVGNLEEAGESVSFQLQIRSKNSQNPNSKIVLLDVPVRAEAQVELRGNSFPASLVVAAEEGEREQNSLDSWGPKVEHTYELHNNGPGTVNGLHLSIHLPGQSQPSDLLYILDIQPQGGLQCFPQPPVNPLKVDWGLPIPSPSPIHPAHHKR
Chain of Integrin alpha-IIb/beta-3 (P08514 891-1039 limits assumed): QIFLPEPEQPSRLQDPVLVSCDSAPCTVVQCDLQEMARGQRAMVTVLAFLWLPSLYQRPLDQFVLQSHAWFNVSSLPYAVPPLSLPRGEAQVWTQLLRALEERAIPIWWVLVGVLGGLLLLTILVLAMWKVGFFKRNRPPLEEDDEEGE

On to `O=C(O)CCCCNC(=O)N1CCC2(CC1)CCN(c1ccncc1)C2`, for which the pIC50 in data set [1] is 4.92; in data set [2], 4.97.

Regarding `O=C(O)CCCCCNC(=O)N1CCC2(CC1)CCN(c1ccncc1)C2`, the pIC50 in data set [1] was under 4.30; in data set [2], 4.13.

In turn, `CCCCOC(=O)N[C@@H](CCC(=O)N1CCC2(CC1)CCN(c1ccncc1)C2)C(=O)O` gave a pIC50 in data set [2] of 5.40.

With `O=C(O)CN1CCN(C(=O)N2CCC3(CCN(c4ccncc4)CC3)C2)CC1=O`, the figures for the pIC50 in data set [1] and in data set [2] were 7.60 and 5.93, respectively.

In data set [2], `O=C(O)COC1CCN(C(=O)N2CCC3(CC2)CCN(c2ccncc2)C3)CC1` showed a pIC50 of 5.42.

`O=C(O)CCC(=O)N1CCN(C(=O)N2CCC3(CC2)CCN(c2ccncc2)C3)CC1` gave a pIC50 in data set [2] of 4.62.

Take `O=C(O)CCCNC(=O)N1CCC2(CC1)CCN(c1ccncc1)C2`: the pIC50 in data set [1] is under 4.30; in data set [2], 4.10.

`O=C(O)COc1ccc(C(=O)N2CCC3(CC2)CCN(c2ccncc2)C3)cc1` gave a pIC50 in data set [2] of 4.95.

For `O=C(O)CC1CCN(C(=O)N2CCC3(CC2)CCN(c2ccncc2)C3)CC1`, the values for the pIC50 in data set [1] and in data set [2] were 6.94 and 5.92, respectively.

As to `O=C(O)CC(=O)N1CCN(C(=O)N2CCC3(CC2)CCN(c2ccncc2)C3)CC1`, the pIC50 in data set [1] was 6.87; in data set [2] it was 6.17.

For `O=C(O)COc1cccc(C(=O)N2CCC3(CC2)CCN(c2ccncc2)C3)c1`, the pIC50 in data set [1] was 6.06; in data set [2] it was 4.74.

Turning to `O=C(O)CCCCCC(=O)N1CCC2(CCN(c3ccncc3)CC2)C1`, the pIC50 in data set [1] is 7.37; in data set [2], 5.89.

`O=C(O)COC1CCN(C(=O)N2CCC3(CCN(c4ccncc4)CC3)C2)CC1`: the pIC50 in data set [1] was 6.82; in data set [2], 5.98.

On to `O=C(N[C@@H](CCC(=O)N1CCC2(CC1)CCN(c1ccncc1)C2)C(=O)O)OCc1ccccc1`, for which the pIC50 in data set [1] is 7.60; in data set [2] it was 5.39.

Consider `O=C(O)CCCCC(=O)N1CCC2(CCN(c3ccncc3)CC2)C1`, for which the results for the pIC50 in data set [1] and in data set [2] were under 4.30 and 4.10, respectively.

`O=C(O)CCN1CCN(C(=O)N2CCC3(CC2)CCN(c2ccncc2)C3)CC1`: the pIC50 was 7.06 in data set [1] and 5.49 in data set [2].

Molecule `O=C(O)CCN1CCC(C(=O)N2CCC3(CC2)CCN(c2ccncc2)C3)CC1` had a pIC50 in data set [2] of 6.00.

In data set [2], `O=C(O)CN1CCN(C(=O)N2CCC3(CC2)CCN(c2ccncc2)C3)CC1` showed a pIC50 of 5.05.

Consider `O=C(O)CCN1CCCN(C(=O)N2CCC3(CC2)CCN(c2ccncc2)C3)CC1`, for which the pIC50 was 6.60 in data set [1] and 5.43 in data set [2].

`O=C(O)[C@H](CCC(=O)N1CCC2(CC1)CCN(c1ccncc1)C2)NS(=O)(=O)c1cnoc1` showed a half-life in data set [3] of 22.8 min. Also, the figures for the pIC50 in data set [1] and in data set [2] were 8.70 and 6.57, respectively. Besides, the bioavailability in data set [4] was 12%.

Molecule `O=C(O)CC(=O)NC1CCN(C(=O)N2CCC3(CC2)CCN(c2ccncc2)C3)C1` (stereo unspecified) gave a pIC50 in data set [2] of 5.23.

As to `O=C(O)CCNC(=O)N1CCC2(CC1)CCN(c1ccncc1)C2`, in data set [2], the pIC50 is 4.46.

As for `O=C(O)CN1CCC(C(=O)N2CCC3(CC2)CCN(c2ccncc2)C3)CC1`, the pIC50 in data set [1] was 6.49; in data set [2], 5.02.

As to `O=C(O)CCn1ccc2cc(C(=O)N3CCC4(CC3)CCN(c3ccncc3)C4)ccc21`, the figures for the pIC50 in data set [1] and in data set [2] were 5.74 and 4.63, respectively.

Take `O=C(O)CCCCCCC(=O)N1CCC2(CCN(c3ccncc3)CC2)C1`: the pIC50 in data set [2] is 4.73.

Take `O=C(O)CC(=O)N1CCC(C(=O)N2CCC3(CCN(c4ccncc4)CC3)C2)CC1`: in data set [2], the pIC50 is 5.80.

For `O=C(O)CS(=O)(=O)N1CCC(C(=O)N2CCC3(CC2)CCN(c2ccncc2)C3)CC1`, the pIC50 in data set [1] was 7.05; in data set [2], 5.96.

For the molecule `O=C(O)CC(=O)N1CCCN(C(=O)N2CCC3(CC2)CCN(c2ccncc2)C3)CC1`, the pIC50 in data set [2] was 6.15.

In turn, `O=C(O)COCC1CCN(C(=O)N2CCC3(CC2)CCN(c2ccncc2)C3)CC1` gave a pIC50 in data set [2] of 5.55.

Regarding `O=C(O)CC(=O)N1CCC(C(=O)N2CCC3(CC2)CCN(c2ccncc2)C3)CC1`, in data set [3], the half-life was 58.8 min. In addition, the values for the pIC50 in data set [1] and in data set [2] were 8.40 and 6.59, respectively. Moreover, the bioavailability in data set [4] stood at 10%.

`O=C(O)CCN1CCN(C(=O)N2CCC3(CCN(c4ccncc4)CC3)C2)CC1=O`: the pIC50 was 6.62 in data set [1] and 5.08 in data set [2].

For `CC(CC(=O)O)N1CCC(C(=O)N2CCC3(CC2)CCN(c2ccncc2)C3)CC1` (stereo unspecified), the pIC50 was 6.65 in data set [1] and 5.48 in data set [2].

In data set [2], `O=C(O)Cn1ccc2cc(C(=O)N3CCC4(CC3)CCN(c3ccncc3)C4)ccc21` had a negative logarithm of the IC50 (pIC50) of 6.02.

With `CN(CC(=O)O)C1CCN(C(=O)N2CCC3(CC2)CCN(c2ccncc2)C3)CC1`, the negative logarithm of the IC50 (pIC50) in data set [1] is 5.92; in data set [2] it was 4.91.

For the molecule `O=C(O)C1CCN(C(=O)N2CCC3(CC2)CCN(c2ccncc2)C3)CC1`, the figures for the pIC50 in data set [1] and in data set [2] were 5.38 and 4.26, respectively.

For orientation: pIC50 means the negative decadic logarithm of the IC50, by convention in mol/L. A word on the half-life: it is how long it takes for the measured level to halve. The bioavailability is dose-corrected exposure relative to a reference, in per cent. Read a low bioavailability as little systemic uptake.

For the origin of these results see ChEMBL document CHEMBL1135274, “Spirocyclic nonpeptide glycoprotein IIb-IIIa antagonists. Part 3: synthesis and SAR of potent and specific 2,8-diazaspiro[4.5]decanes” (Bioorg Med Chem Lett, 2002).
